The record followed here is PubChem BioAssay AID179 (DTP/NCI, 2004).

The subject of the assay is CEM cells HIV-1 protection, formazan growth assay. Briefly: NCI AIDS Antiviral Assay. As to conditions: for IC50: measured here: growth of uninfected CEM cells. The method, boiled down:
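Human CEM cells, uninfected and HIV-1-infected, exposed to five drug concentrations; growth measured by soluble formazan assay and scored as percent protection from infection, with protecting compounds retested.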

The source made the active and inactive calls.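 The calls were made as follows: active = compounds giving half or more protection of infected cells from virus-caused growth loss, again on retest; inactive = the rest.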

On to `CC(C)(C)OC(=O)NC(CCC(=O)OCc1ccccc1)C(=O)NCCCO` (stereo not drawn), for which the EC50 is more than 200 µM and the half-inhibitory concentration (IC50) was more than 200 µM.

As for `Cc1cc(C)c(S(=O)(=O)N(CCCCCCN)OCCCN)c(C)c1`, the EC50 was more than 200 µM and the IC50 came to 30.2 µM.

In the case of `Cc1c(COC(=O)NC(C)C)c(COC(=O)NC(C)C)c2n1CSC2`, the EC50 is more than 51.3 µM and the IC50 is 2.4 µM.

As to `N#CCCN(CCC#N)c1ccc(/C=C2\N=C(c3ccccc3)N(c3ccccn3)C2=O)cc1`, the EC50 is more than 200 µM and the IC50 is more than 200 µM.

As to `Cn1cc(C(N)=O)ccc1=N`, the EC50 was more than 200 µM and the IC50 is more than 200 µM.

As for `c1ccc2c3nnc(c2c1)SCCCSc1nnc(c2ccccc12)SCCCS3`, the EC50 is more than 200 µM and the IC50 is more than 200 µM.

`COc1cc(C2SCC(=O)N2c2ccc(-c3ccc(-n4c(-c5ccccc5)nc5ccccc5c4=O)cc3)cc2)ccc1O` (stereo not drawn): the EC50 is more than 200 µM and the 50% inhibitory concentration (IC50) amounted to 67.6 µM.

Regarding `NC(N)=N/N=C/c1c[nH]c2ccccc12`, the EC50 is more than 955 µM and the IC50 was 55 µM.

Turning to `COc1cc(Br)c(OC)c2c(OC)cc(C)cc12`, the EC50 was more than 200 µM and the IC50 amounted to 35.5 µM.

On to `O=C1CCC(=O)c2ccccc2N1`, for which the EC50 was more than 1020 µM and the 50% inhibitory concentration (IC50) was more than 1020 µM.

As for `O=C(CC(C(=O)c1ccsc1)c1ccc2c(c1)OCO2)c1ccccc1` (stereo not drawn), the EC50 is more than 200 µM and the half-maximal inhibitory concentration (IC50) was more than 200 µM.

Turning to `CCCCCCCCCCCCCCCCOCC(Cl)COP(=O)(O)OP(=O)(O)OCC1OC(n2cnc3c(N)ncnc32)C(O)C1O` (stereo not drawn), the EC50 was more than 100 µM and the IC50 is more than 100 µM.

For `O=c1[nH]c(-c2nc3ccccc3c(=O)[nH]2)nc2ccccc12`, the EC50 was more than 32.4 µM and the IC50 was more than 32.4 µM.

Regarding `O=C1c2ccccc2C(=O)c2c(SSc3cccc4c3C(=O)c3ccccc3C4=O)cccc21`, the EC50 was more than 200 µM and the 50% inhibitory concentration (IC50) is more than 200 µM.

`COc1ccc2cc(C(=O)NCCCNC(=O)c3ccc4c(OC)c(OC)ccc4c3)ccc2c1OC`: the EC50 is more than 200 µM and the IC50 was more than 200 µM.

`Clc1ccc(CCc2ccncn2)c(Cl)c1`: the EC50 was more than 398 µM and the IC50 stood at 38 µM.

In the case of `C=C1CN(S(=O)(=O)c2ccc(C)cc2)CCCN(CC(C)CC)CCCN(S(=O)(=O)c2ccc(C)cc2)C1` (stereo not drawn), the EC50 was more than 58.9 µM and the concentration for half-maximal inhibition (IC50) is 2.57 µM.

Consider `C=C=C[P+](c1ccccc1)(c1ccccc1)c1ccccc1`, for which the EC50 is more than 155 µM and the half-maximal inhibitory concentration (IC50) was 3.24 µM.

For `CC1(C)CS(=O)(=O)CC(C)(C)C(=O)C1=O`, the EC50 was more than 200 µM and the IC50 is more than 200 µM.

As for `O=[N+]([O-])c1ccccc1Oc1ccccc1`, the EC50 is 55 µM and the half-maximal inhibitory concentration (IC50) was found to be 87.1 µM.

For the molecule `NC(N)=NS(=O)(=O)c1ccc(Nc2c3ccccc3nc3c(C(=O)NC(CO)(CO)CO)cccc23)cc1`, the EC50 was more than 200 µM and the IC50 stood at 3.31 µM.

For `CCc1cc2c(oc3cc4ccccc4cc32)c(=O)[nH]1`, the EC50 was more than 200 µM and the IC50 was more than 200 µM.

On to `COc1ccc(C(=O)Nc2ccc(S(=O)(=O)NCC(=O)O)cc2)cc1`, for which the outcome was inactive.

For the molecule `CC(C)(Oc1ccc2c(=O)cc(-c3ccccc3)oc2c1)C(=O)Nc1c(Cl)cccc1Cl`, the EC50 was more than 11.2 µM and the IC50 was more than 11.2 µM.

With `OCC1(CO)CCCC(CO)(CO)C1O`, the EC50 is more than 200 µM and the 50% inhibitory concentration (IC50) was more than 200 µM.

With `Nc1c(S(=O)(=O)O)cc2cc(S(=O)(=O)O)ccc2c1N=Nc1ccc(CCc2ccc(N=Nc3c(N)c(S(=O)(=O)O)cc4cc(S(=O)(=O)O)ccc34)cc2S(=O)(=O)O)c(S(=O)(=O)O)c1`, the EC50 is 7.59 µM and the IC50 stood at 60.3 µM.

As to `CC#CC(O)(C(=O)OC1CCC2CCC1N2C)C1CCCC1` (stereo not drawn), the EC50 was more than 200 µM and the IC50 was more than 200 µM.

With `O=S(=O)(O)c1cc(N=Nc2ccc(O)c3ncccc23)ccc1CCc1ccc(N=Nc2ccc(O)c3ncccc23)cc1S(=O)(=O)O`, the EC50 is 6.31 µM and the IC50 is 42.7 µM.

For the molecule `Nc1nc(N)nc(-c2cccs2)n1`, the EC50 was more than 200 µM and the IC50 is more than 200 µM.

For `Cc1nc(-c2cccnc2)sc1C(=O)CC(=O)C(=O)Nc1cccc(NC(=O)C(=O)CC(=O)c2sc(-c3cccnc3)nc2C)n1`, the EC50 is more than 275 µM and the IC50 stood at 158 µM.

Regarding `O=[N+]([O-])c1c[c]([Sb](=[O])([OH])[OH])ccc1Cl`, the concentration for a half-maximal effect (EC50) is more than 200 µM and the concentration for half-maximal inhibition (IC50) is more than 200 µM.

With `O=C1c2sccc2[C@H](NC(=O)C(F)(F)F)[C@@H]1Cl`, the EC50 is more than 200 µM and the concentration for half-maximal inhibition (IC50) was more than 200 µM.

Regarding `COC(=O)C(=O)C(C(=O)C(=O)Nc1ccc(Cl)c(Cl)c1)c1nc2ccc(C(=O)c3ccccc3)cc2[nH]c1=O` (stereo not drawn), the EC50 was more than 33.1 µM and the half-maximal inhibitory concentration (IC50) was more than 33.1 µM.

As for `C1=CC2CCC1CN2CCC1CNc2ccccc21` (stereo not drawn), the result was inactive.

Consider `CCOC(=O)C1=C(c2ccccc2)N(C(C)=O)Cc2ccccc21`, for which the EC50 is more than 50.1 µM and the IC50 was found to be 28.2 µM.

For `NCCN.O=C([O-])CC(O)C(=O)[O-].[Pt+4]` (stereo not drawn), the EC50 is more than 200 µM and the IC50 is 12 µM.

Turning to `O=S(=O)(Nc1nc2ccccc2nc1N1CCCCCC1)c1ccccc1`, the EC50 was more than 200 µM and the concentration for half-maximal inhibition (IC50) is 33.9 µM.

With `O=C1/C(=C\c2cccc(Oc3ccccc3)c2)SC(c2ccccc2)N1c1ccccc1Cl` (stereo not drawn), the EC50 is more than 20 µM.

Turning to `C[C@@H]1C[C@H]2[C@@H]3CCC4=CC(=O)C=C[C@]4(C)[C@@]3(F)[C@@H](O)C[C@]2(C)[C@@]1(O)C(=O)CO`, the outcome was inactive.

Take `CC(C)=CCS(=O)c1ccccc1NC1=CC(=O)CC(C)(C)C1` (stereo not drawn): the result was inactive.

As to `Cc1cc(=O)oc2c3c(ccc12)OC(c1ccc(Br)cc1)CC3=O` (stereo not drawn), the EC50 is more than 200 µM and the IC50 was determined as 46.8 µM.

With `N#CC1(C#N)C(C#N)(C#N)C12CCCCCC2`, the result was inactive.

Turning to `COC(=O)c1cc(C(=O)OC)c(C/C(=N/Nc2ccc([N+](=O)[O-])cc2[N+](=O)[O-])C(=O)Nc2cccc(C(F)(F)F)c2)nc1C/C(=N/Nc1ccc([N+](=O)[O-])cc1[N+](=O)[O-])C(=O)Nc1cccc(C(F)(F)F)c1`, the EC50 was more than 200 µM and the 50% inhibitory concentration (IC50) came out at 70.8 µM.

Turning to `C=C1C(C)C2C(Cc3ccccc3)NC(=O)C23OC(=O)/C=C\CC(=O)CCC(C)C/C=C/C3C1O` (stereo not drawn), the EC50 was more than 38.9 µM and the IC50 is 1.45 µM.

On to `COC1/C=C/OC2(C)Oc3c(C)c(O)c4c(O)c(c(/C=N/N(C)C(C)C(O)c5ccccc5)c(O)c4c3C2=O)NC(=O)C(C)=C/C=C/C(C)C(O)C(C)C(O)C(C)C(OC(C)=O)C1C` (stereo not drawn), for which the EC50 is more than 200 µM and the IC50 worked out at 9.55 µM.

`O=S(=O)(SC1=NCCN1)c1cccc2ccccc12`: the EC50 is more than 81.3 µM and the IC50 was 37.2 µM.

Turning to `Nc1nc(Cl)cc2nsnc12`, the EC50 is more than 28.2 µM and the 50% inhibitory concentration (IC50) is more than 28.2 µM.

As to `C/C=C(/C)C(=O)O[C@H](C[C@@H](C)[C@H]1CC(c2ccoc2)OC1=O)[C@@]1(C)C(=O)CCC2O[C@]21C` (stereo partly drawn), the EC50 is more than 200 µM and the IC50 is more than 200 µM.

As to `Cc1cc(=O)n2c(nc3cc(C)c(C)cc32)s1`, the EC50 was more than 200 µM and the IC50 was more than 200 µM.

On to `C=C(C[N+](C)(C)C)N/N=C/c1oc(-c2ccc(OC)c(OC)c2)c(-c2ccc(OC)c(OC)c2)c1[N+](=O)[O-]`, for which the EC50 is more than 12.9 µM and the IC50 is more than 12.9 µM.

As to `CC(C)=C1C(=O)N(c2ccccc2)N(c2ccccc2)C1=O`, the EC50 is more than 200 µM and the IC50 amounted to 79.4 µM.

`CN(C)c1ccc(/C=C(\NC(=O)c2ccccc2)C(=O)NC(Cc2c[nH]c3ccccc23)C(=O)O)cc1` (stereo not drawn): the EC50 is more than 100 µM and the concentration for half-maximal inhibition (IC50) was more than 100 µM.

For `CCOC(=O)Cc1csc2[n+]1C(=O)/C(=C/c1cccc(OC)c1O)S2`, the EC50 is more than 200 µM and the half-inhibitory concentration (IC50) is 174 µM.

As for `O=c1ccc2cc([N+](=O)[O-])ccc2o1`, the EC50 was more than 646 µM and the concentration for half-maximal inhibition (IC50) was found to be 363 µM.

Consider `CC(=O)OC(C(=O)[O][Ge]([CH3])([CH3])[CH3])c1ccccc1` (stereo not drawn), for which the result was inactive.

As to `COc1cc2c(cc1OC)C(C(CBr)CBr)N(C1CCCC1)CC2` (stereo not drawn), the EC50 was more than 389 µM and the half-maximal inhibitory concentration (IC50) was more than 389 µM.

With `COc1cc2c(cc1OC)/C(=C\c1ccccc1N)C(=O)OC2`, the outcome was inactive.

As for `O=[N+]([O-])c1cc(S(=O)(=O)c2ccc(O)c([N+](=O)[O-])c2)ccc1O`, the EC50 is more than 200 µM and the IC50 is more than 100 µM.

On to `CN(C)CCn1cnc2ncccc2c1=O`, for which the result was inactive.

As to `COc1ccc(/C=C2\N=C(c3ccccc3)OC2=O)c(OCc2ccccc2)c1`, the EC50 was more than 9.77 µM and the IC50 was more than 9.77 µM.

On to `CCOC(=O)C1Sc2c(c(=O)n(C)c3ccccc23)C1=O` (stereo not drawn), for which the EC50 is more than 16.6 µM and the 50% inhibitory concentration (IC50) stood at 12 µM.

On to `CN(C)c1cc2c3ccccc3ccc2c2ccccc12`, for which the EC50 is more than 7.41 µM and the IC50 was more than 7.41 µM.

On to `Cc1cn([C@H]2C[C@](C)(CO)N(C)O2)c(=O)[nH]c1=O`, for which the EC50 was more than 200 µM and the half-inhibitory concentration (IC50) was more than 200 µM.

Consider `COc1cccc(/C=C(/C(C)=O)C(=O)c2ccccc2)c1`, for which the result was inactive.

Regarding `O=C([O-])C(F)(F)F.[C-]#[O+].[C-]#[O+].[C-]#[O+].[C-]#[O+].[C-]#[O+].[Mn]`, the EC50 was more than 813 µM and the IC50 stood at 44.7 µM.

As to `CC1NC(=O)c2c(-c3ccccc3)nn(-c3ccccc3)c2NC1=O` (stereo not drawn), the EC50 is more than 200 µM and the IC50 is more than 200 µM.

Regarding `CC(C)CC(=O)NC(C(=O)NC(C(=O)NC(CC(C)C)C(O)CC(=O)NC(C)C(=O)NC(CC(C)C)C(O)CC(=O)O)C(C)C)C(C)C` (stereo not drawn), the EC50 is more than 36.3 µM and the IC50 was more than 36.3 µM.

Turning to `COC(=O)c1c(C)c2c(c(C)c1C(=O)OC)-c1c(C)ccc3ccc(C)c-2c13`, the EC50 was more than 100 µM and the half-inhibitory concentration (IC50) was found to be 3.72 µM.

With `CC(C)=C/C(CC(O)(C(F)(F)F)C(F)(F)F)=N\O`, the EC50 was more than 200 µM and the IC50 was more than 200 µM.
